According to publication PMC8087116 (European journal of pharmaceutical sciences : official …, 2017):

What was measured:
CCRF-CEM = assay: NCI-60 screening, leukemia CCRF-CEM; assay type: cell-based, human
MDA-MB-468 = assay: NCI-60 screening, breast MDA-MB-468; assay type: cell-based, human
COLO-205 = assay: NCI-60 dose-response, colon COLO-205; assay type: cell-based, human; settings: COLO-205 colon cancer cell line, five-concentration dose-response
SW-620 = assay: NCI-60 dose-response, colon SW-620; assay type: cell-based, human; settings: SW-620 colon cancer cell line, five-concentration dose-response
SR cell line = assay: NCI-60 dose-response, leukemia SR; assay type: cell-based, human; settings: five-concentration dose-response
MDA-MB-231/ATCC = assay: NCI-60 dose-response, breast MDA-MB-231/ATCC; assay type: cell-based, human; settings: MDA-MB-231/ATCC breast cancer cell line, five-concentration dose-response
LOX IMVI = assay: NCI-60 dose-response, melanoma LOX IMVI; assay type: cell-based, human; settings: LOX IMVI melanoma cell line, five-concentration dose-response
MALME-3 M = assay: NCI-60 dose-response, melanoma MALME-3 M; assay type: cell-based, human; settings: MALME-3 M melanoma cell line, five-concentration dose-response
M14 = assay: NCI-60 dose-response, melanoma M14; assay type: cell-based, human; settings: M14 melanoma cell line, five-concentration dose-response
SK-MEL-5 = assay: NCI-60 dose-response, melanoma SK-MEL-5; assay type: cell-based, human; settings: SK-MEL-5 melanoma cell line, five-concentration dose-response
[1] = system: NCI-60 human tumor cell lines; settings: for Inhibition against one or more cell lines: single dose 10 μM
HL-60-TB = assay: NCI-60 screening, leukemia HL-60-TB; assay type: cell-based, human
MOLT-4 = assay: NCI-60 screening, leukemia MOLT-4; assay type: cell-based, human
HOP-92 = assay: NCI-60 screening, NSCL HOP-92; assay type: cell-based, human
PC-3 = assay: NCI-60 screening, prostate PC-3; assay type: cell-based, human
HOP-62 = assay: NCI-60 screening, NSCL HOP-62; assay type: cell-based, human
NCI-H23 = assay: NCI-60 screening, NSCL NCI-H23; assay type: cell-based, human
RPMI-8226 = assay: NCI-60 screening, leukemia RPMI-8226; assay type: cell-based, human

COC(=O)[C@@H](C)CNS(=O)(=O)N(c1cc(C(F)(F)F)cc(C(F)(F)F)c1)C1CCN(Cc2ccc(F)cc2)CC1 [Compound 26]
GI50 (CCRF-CEM; CCRF-CEM leukemia cell line, five-concentration dose-response): 12.8 µM
GI50 (MDA-MB-468; MDA-MB-468 breast cancer cell line, five-concentration dose-response): 3.25 µM
GI50 (COLO-205): 1.88 µM
GI50 (SW-620): 11.1 µM
GI50 (SR cell line): 3.18 µM
GI50 (MDA-MB-231/ATCC): 12.7 µM
GI50 (LOX IMVI): 8.1 µM
GI50 (MALME-3 M): 6.89 µM
GI50 (M14): 3.75 µM
GI50 (SK-MEL-5): 3.19 µM
Cytotoxicity as indicated by LC50 values, words [1]: not cytotoxic for most of the cell lines
GI50 ([1]; all remaining subpanel cell lines of NCI-60): ≤ 21 µM
TGI (total growth inhibition, cytostatic activity), words ([1]; dose-response, NCI-60 panel): total growth inhibition of most of the cell lines at moderate concentrations

COC(=O)[C@H](NS(=O)(=O)N(c1ccc(F)cc1)C1CCN(Cc2ccc(F)cc2)CC1)C(C)C [Compound 37]
Inhibition of sensitive tumor cell lines at 10 μM conc. (HL-60-TB): Leukemia: HL-60-TB (60%)
Inhibition against one or more cell lines [1]: > 50%

COC(=O)[C@H](NS(=O)(=O)N(c1cccc(F)c1)C1CCN(Cc2ccc(F)cc2)CC1)C(C)C [Compound 18]
Inhibition of sensitive tumor cell lines at 10 μM conc. (HL-60-TB): Leukemia: HL-60-TB (56%)
Inhibition against one or more cell lines [1]: > 50%

COC(=O)[C@@H](NS(=O)(=O)N(c1ccc(F)cc1)C1CCN(C(=O)c2ccc(F)cc2)CC1)C(C)C [Compound 36]
Inhibition of sensitive tumor cell lines at 10 μM conc. (HL-60-TB): Leukemia: HL-60-TB (57%)
Inhibition against one or more cell lines [1]: > 50%

COC(=O)[C@@H](CC(C)C)NS(=O)(=O)N(c1cccc(F)c1)C1CCN(Cc2ccc(C(F)(F)F)cc2)CC1 [Compound 25]
Inhibition of sensitive tumor cell lines at 10 μM conc. (MOLT-4): 56%
Inhibition of sensitive tumor cell lines at 10 μM conc. (HOP-92): 60%
Inhibition of sensitive tumor cell lines at 10 μM conc. (PC-3): 50%
Inhibition against one or more cell lines [1]: > 50%

CC(C)[C@@H](NS(=O)(=O)N(c1cccc(F)c1)C1CCN(Cc2ccc(O)cc2)CC1)C(=O)O [Compound 19]
Inhibition of sensitive tumor cell lines at 10 μM conc. (HOP-62): 88%
Inhibition of sensitive tumor cell lines at 10 μM conc. (NCI-H23): 58%
Inhibition against one or more cell lines [1]: > 50%

O=S(=O)(c1ccc(Br)cc1)N(c1cccc(F)c1)C1CCN(Cc2ccc(F)cc2)CC1 [Compound 49]
Inhibition of sensitive tumor cell lines at 10 μM conc. (CCRF-CEM; 10 μM, Leukemia CCRF-CEM): 51%
Inhibition of sensitive tumor cell lines at 10 μM conc. (RPMI-8226): 65%
Inhibition of sensitive tumor cell lines at 10 μM conc. (MDA-MB-468; 10 μM, Breast MDA-MB-468): 53%
Inhibition against one or more cell lines [1]: > 50%

COC(=O)[C@@H](OC(=O)NS(=O)(=O)N(c1ccc(F)cc1)C1CCN(Cc2ccc(F)cc2)CC1)C(C)C [Compound 39]
Inhibition against one or more cell lines [1]: > 50%
